Measured values from the supplement of paper PMC10307832.

Assays:
Assay in all cases: relative viability (nuclei count vs DMSO), 5 days (fraction); higher = more cells survive
A-427 = tested on: A-427
Summary of the method: (§1)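 Each reported value is a median over duplicate plates. It expresses relative viability: treated-well nuclei count divided by vehicle-well nuclei count. Lung cancer cell lines in 1536-well plates were dosed by pin tool a day after seeding, alone with one drug or with a fixed anchor-drug dose plus five library-drug doses (not always all listed) in √10 steps, and nuclei were counted after 5 days.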

CAL-12T = tested on: CAL-12T
Summary of the method: as §1

COR-L 105 = tested on: COR-L 105
Summary of the method: as §1

COR-L23 = tested on: COR-L23
Summary of the method: as §1

EPLC-272H = tested on: EPLC-272H
Summary of the method: as §1

HOP-62 = tested on: HOP-62
Summary of the method: as §1

LCLC-103H = tested on: LCLC-103H
Summary of the method: as §1

LXF-289 = tested on: LXF-289
Summary of the method: as §1

NCI-H1395 = tested on: NCI-H1395
Summary of the method: as §1

NCI-H1563 = tested on: NCI-H1563
Summary of the method: as §1

NCI-H1651 = tested on: NCI-H1651
Summary of the method: as §1

NCI-H1975 = tested on: NCI-H1975
Summary of the method: as §1

NCI-H1993 = tested on: NCI-H1993
Summary of the method: as §1

NCI-H2023 = tested on: NCI-H2023
Summary of the method: as §1

NCI-H2085 = tested on: NCI-H2085
Summary of the method: as §1

NCI-H2087 = tested on: NCI-H2087
Summary of the method: as §1

NCI-H2170 = tested on: NCI-H2170
Summary of the method: as §1

NCI-H2342 = tested on: NCI-H2342
Summary of the method: as §1

NCI-H3122 = tested on: NCI-H3122
Summary of the method: as §1

NCI-H596 = tested on: NCI-H596
Summary of the method: as §1

NCI-H647 = tested on: NCI-H647
Summary of the method: as §1

NCI-H650 = tested on: NCI-H650
Summary of the method: as §1

PC-14 = tested on: PC-14
Summary of the method: as §1

RERF-LC-KJ = tested on: RERF-LC-KJ
Summary of the method: as §1

SK-MES-1 = tested on: SK-MES-1
Summary of the method: as §1

`CCCCCCCCCCCC1=C(O)C(=O)C=C(O)C1=O` [Embelin] + CCNC(=O)c1noc(-c2cc(C(C)C)c(O)cc2O)c1-c1ccc(CN2CCOCC2)cc1 [Luminespib] (partner 0.01 µM) gave a relative viability (A-427; first compound 0.08 µM) of 0.976, a relative viability (A-427; first compound 0.8 µM) of 0.998 and a relative viability (A-427; first compound 2.53 µM) of 0.966. For the same molecule, the relative viability (A-427; first compound 8 µM) was 1.18, the relative viability (CAL-12T; first compound 0.08 µM) was 0.499 and the relative viability (CAL-12T; first compound 0.8 µM) was 0.69. For the same molecule, the relative viability (CAL-12T; first compound 2.53 µM) was 0.626, the relative viability (CAL-12T; first compound 8 µM) was 0.189 and the relative viability (COR-L 105; first compound 0.08 µM) was 0.778. The relative viability (COR-L 105; first compound 0.8 µM) was 0.894, the relative viability (COR-L 105; first compound 2.53 µM) was 0.737 and the relative viability (COR-L 105; first compound 8 µM) was 0.624. The relative viability (COR-L23; first compound 0.08 µM) was 0.773, the relative viability (COR-L23; first compound 0.8 µM) was 0.73 and the relative viability (COR-L23; first compound 2.53 µM) was 0.911. It also gave a relative viability (COR-L23; first compound 8 µM) of 0.763, a relative viability (EPLC-272H; first compound 0.08 µM) of 0.69 and a relative viability (EPLC-272H; first compound 0.8 µM) of 0.222. The relative viability (EPLC-272H; first compound 2.53 µM) was 0.253, the relative viability (EPLC-272H; first compound 8 µM) was 0.266 and the relative viability (HOP-62; first compound 0.08 µM) was 0.971. It also gave a relative viability (HOP-62; first compound 0.8 µM) of 0.958, a relative viability (HOP-62; first compound 2.53 µM) of 1.07 and a relative viability (HOP-62; first compound 8 µM) of 0.842. For the same molecule, the relative viability (LCLC-103H; first compound 0.08 µM) was 1, the relative viability (LCLC-103H; first compound 0.8 µM) was 1.03 and the relative viability (LCLC-103H; first compound 2.53 µM) was 1.14. For the same molecule, the relative viability (LCLC-103H; first compound 8 µM) was 0.926, the relative viability (LXF-289; first compound 0.08 µM) was 0.548 and the relative viability (LXF-289; first compound 0.8 µM) was 0.619. It also gave a relative viability (LXF-289; first compound 2.53 µM) of 0.781, a relative viability (LXF-289; first compound 8 µM) of 0.751 and a relative viability (NCI-H1395; first compound 0.08 µM) of 0.741. It also gave a relative viability (NCI-H1395; first compound 0.8 µM) of 0.928, a relative viability (NCI-H1395; first compound 2.53 µM) of 0.783 and a relative viability (NCI-H1395; first compound 8 µM) of 0.631. It also gave a relative viability (NCI-H1563; first compound 0.08 µM) of 0.568, a relative viability (NCI-H1563; first compound 0.8 µM) of 0.573 and a relative viability (NCI-H1563; first compound 2.53 µM) of 0.526. It also gave a relative viability (NCI-H1563; first compound 8 µM) of 0.487, a relative viability (NCI-H1651; first compound 0.08 µM) of 0.953 and a relative viability (NCI-H1651; first compound 0.8 µM) of 0.944. The relative viability (NCI-H1651; first compound 2.53 µM) was 0.977, the relative viability (NCI-H1651; first compound 8 µM) was 0.886 and the relative viability (NCI-H1975; first compound 0.08 µM) was 0.296. The relative viability (NCI-H1975; first compound 0.8 µM) was 0.282, the relative viability (NCI-H1975; first compound 2.53 µM) was 0.293 and the relative viability (NCI-H1975; first compound 8 µM) was 0.2. For the same molecule, the relative viability (NCI-H1993; first compound 0.08 µM) was 0.848, the relative viability (NCI-H1993; first compound 0.8 µM) was 0.763 and the relative viability (NCI-H1993; first compound 2.53 µM) was 1.04. For the same molecule, the relative viability (NCI-H1993; first compound 8 µM) was 0.963, the relative viability (NCI-H2023; first compound 0.08 µM) was 0.813 and the relative viability (NCI-H2023; first compound 0.8 µM) was 0.914. The relative viability (NCI-H2023; first compound 2.53 µM) was 0.773, the relative viability (NCI-H2023; first compound 8 µM) was 0.372 and the relative viability (NCI-H2085; first compound 0.08 µM) was 0.458. The relative viability (NCI-H2085; first compound 0.8 µM) was 0.463, the relative viability (NCI-H2085; first compound 2.53 µM) was 0.469 and the relative viability (NCI-H2085; first compound 8 µM) was 0.4. It also gave a relative viability (NCI-H2087; first compound 0.08 µM) of 0.162, a relative viability (NCI-H2087; first compound 0.8 µM) of 0.186 and a relative viability (NCI-H2087; first compound 2.53 µM) of 0.141. It also gave a relative viability (NCI-H2087; first compound 8 µM) of 0.172, a relative viability (NCI-H2170; first compound 0.08 µM) of 0.701 and a relative viability (NCI-H2170; first compound 0.8 µM) of 0.753. It also gave a relative viability (NCI-H2170; first compound 2.53 µM) of 0.397, a relative viability (NCI-H2170; first compound 8 µM) of 0.589 and a relative viability (NCI-H2342; first compound 0.08 µM) of 0.758. For the same molecule, the relative viability (NCI-H2342; first compound 0.8 µM) was 0.902, the relative viability (NCI-H2342; first compound 2.53 µM) was 0.826 and the relative viability (NCI-H2342; first compound 8 µM) was 0.645. The relative viability (NCI-H3122; first compound 0.08 µM) was 0.068, the relative viability (NCI-H3122; first compound 0.8 µM) was 0.0941 and the relative viability (NCI-H3122; first compound 2.53 µM) was 0.0799. For the same molecule, the relative viability (NCI-H3122; first compound 8 µM) was 0.0894, the relative viability (NCI-H596; first compound 0.08 µM) was 1.05 and the relative viability (NCI-H596; first compound 0.8 µM) was 0.795. The relative viability (NCI-H596; first compound 2.53 µM) was 1.43, the relative viability (NCI-H596; first compound 8 µM) was 0.904 and the relative viability (NCI-H647; first compound 0.08 µM) was 0.233. The relative viability (NCI-H647; first compound 0.8 µM) was 0.326, the relative viability (NCI-H647; first compound 2.53 µM) was 0.138 and the relative viability (NCI-H647; first compound 8 µM) was 0.132. For the same molecule, the relative viability (NCI-H650; first compound 0.08 µM) was 0.712, the relative viability (NCI-H650; first compound 0.8 µM) was 0.986 and the relative viability (NCI-H650; first compound 2.53 µM) was 0.888. For the same molecule, the relative viability (NCI-H650; first compound 8 µM) was 0.637, the relative viability (PC-14; first compound 0.08 µM) was 0.203 and the relative viability (PC-14; first compound 0.8 µM) was 0.235. The relative viability (PC-14; first compound 2.53 µM) was 0.211, the relative viability (PC-14; first compound 8 µM) was 0.167 and the relative viability (RERF-LC-KJ; first compound 0.08 µM) was 1.05. The relative viability (RERF-LC-KJ; first compound 0.8 µM) was 1.13, the relative viability (RERF-LC-KJ; first compound 2.53 µM) was 1.51 and the relative viability (RERF-LC-KJ; first compound 8 µM) was 0.55. For the same molecule, the relative viability (SK-MES-1; first compound 0.08 µM) was 0.723, the relative viability (SK-MES-1; first compound 0.8 µM) was 1.05 and the relative viability (SK-MES-1; first compound 2.53 µM) was 0.918. The relative viability (SK-MES-1; first compound 8 µM) was 0.695.
